Measurements: US10743813B2, “Diabetes control using postprandial feedback” (priority 2014, dated 2020)

Assays:
[1] = tested on: subject with T2D; experiment: Blood glucose response to postprandial exercise; type: in vivo, human
Experimental: The patient of Example 1 was encouraged to track glucose levels, including postprandial glucose levels, to observe the effect of postprandial exercise and lifestyle changes. To control triglyceridemia they also started over the counter orlistat at a 60 mg dose daily with a daily multi-vitamin supplement and an additional vitamin D supplement. They had discontinued metformin and statins. Instead close monitoring of blood glucose levels was undertaken.
In Example 2, when using orlistat at 60 mg daily, the patient noticed that blood glucose levels reduced to a level of about 90 to 100 mg/dL, which is in the normal range, after a modest meal with a brisk walk after eating. The blood glucose levels stayed below 100 mg/dL for several hours. […] Effectively exercise is contraindicated in standard of care treatments for T2D due to the use of medications that can drive the glucose levels too low.
A subject with T2D with fasting glucose levels of over 140 mg/dL was treated with 60 mg Orlistat. The subject undertook exercise in a postprandial state within about an hour and a half after eating. […]
The subject with T2D was treated with Pioglitazone 15 mg and postprandial exercise but no Exercise Sensitizer or SGLT2 inhibitor. Over twenty minutes of postprandial exercise glucose readings were taken every 5 minutes for fifteen minutes. […]
The subject with T2D was treated with Exercise Sensitizer Colestipol (1 gm dose) and postprandial exercise. Over twenty minutes of postprandial exercise glucose readings were taken every 5 minutes for fifteen minutes. […]
The subject with T2D was treated with Exercise Sensitizer Colestipol (1 gm) before each meal and with 60 mg. of Exercise Sensitizer Orlistat and 100 mg. of Canagliflozin daily. […] Over twenty minutes of postprandial exercise on an elliptical trainer at a resistance setting of 6, glucose readings dropped to about 81 to 84 mg/dL. […]

[2] = tested on: subject with T2D; experiment: Blood glucose response to exercise in a fasting state; type: in vivo, human; conditions: 60 mg Orlistat; over fifteen to thirty minutes
Experimental: A subject with T2D with starting fasting glucose level of about 140 mg/dL to 160 mg/dL and HbA1c of about 8 was treated with Orlistat. In one aspect, the subject with T2D was treated with 60 mg Orlistat and exercised in a fasting state. […] Although not intending to be bound by theory, one factor may be the natural inhibition of gluconeogenesis in the postprandial state. In addition, the release of fatty acids or lack thereof may affect the release of cholecystokinin and other downstream effects and thus account for the synergy between the postprandial state and the Exercise Sensitizers.

[3] = tested on: subject with T2D; experiment: Three month treatment with postprandial exercise: fasting glucose, HbA1c, triglycerides, BMI; type: in vivo, human; conditions: postprandial exercise with orlistat; from over 500 mg/dL
Experimental: Over three months to speed up the slow progress the subject with T2D with fasting glucose level of about 140 mg/dL and HbA1c of about 7.5 or above was treated with Orlistat at the lowest marketed dose of 60 mg and the lowest dose for either Canafliglozin (100 mg) and Dapagliflozin (5 mg). Postprandial exercise with orlistat reduced triglycerides to about 260 mg/dL from over 500 mg/dL.
An invasive glucose testing meter was used to simulate a post-prandial invasive/noninvasive glucose monitoring device. Specifically a combination of orlistat and a SGLT2 inhibitor (Canafliglozin and Dapagliflozin) was administered. Treatment with orlistat (60 mg) daily alone with […]
The fasting glucose levels changed and continued to decrease overall over the three months.
The fasting glucose levels were obtained using a portable glucose meter while the fasting glucose (again to check the meter and strip accuracy) and HbA1c were determined using laboratory tests that included a lipid panel. […] Also the subject could not be fully compliant—many meals were not followed by exercise. The treatment with Exercise Sensitizer and SGLT2 inhibitor was adhered to strictly. Still, the triglyceride levels dropped to 260 and eventually to about 220 from about 500. […]

[4] = tested on: Adults with Type 2 Diabetes Mellitus; conditions: starting HbA1c below 8; 300 mg/day; as long as 52 weeks; cited from earlier work

Which “blood glucose level during postprandial exercise” value ([1]; Pioglitazone 15 mg, at about ten minutes, then leveled off, from about 175 mg/dL) does the source give for `CCc1ccc(CCOc2ccc(CC3SC(=O)NC3=O)cc2)nc1` (stereo not drawn) [Pioglitazone] here?
The value was “about 103 mg/dL”.

What does the source list for `CCCCCCCCCCC[C@@H](C[C@@H]1OC(=O)[C@H]1CCCCCC)OC(=O)[C@H](CC(C)C)NC=O` [Orlistat, (S)—((S)-1-((2S,3S)-3-Hexyl-4-oxooxetan-2-yl)tridecan-2-yl) 2-formamido-4-methylpentanoate]?
blood/plasma glucose level after postprandial exercise ([1]; 60 mg Orlistat, exercise within about an hour and a half after eating, fasting glucose over 140 mg/dL): dropped sharply to the normal range; blood glucose level for several hours after the postprandial walk ([1]; orlistat 60 mg daily, several hours): below 100 mg/dL; blood/plasma glucose level on exercise in a fasting state [2]: increased or remained steady in the high range; triglycerides [3]: about 260 mg/dL

For `Cc1ccc([C@@H]2O[C@H](CO)[C@@H](O)[C@H](O)[C@H]2O)cc1Cc1ccc(-c2ccc(F)cc2)s1` [Canagliflozin, (2S,3R,4R,5S,6R)-2-{3-[5-[4-Fluoro-phenyl)-thiophen-2-ylmethyl]-4-methyl-phenyl}-6-hydroxymethyl-tetrahydro-pyran-3,4,5-triol], which “improvement in HbA1c” value [4] is on record?
Its value is “less than 0.8”.
